Type in all cases: functional
The test system of experiment [1] is Lymantria dispar. The experiment can be described thus: Antifeedant activity in gypsy moth ten third-instar larvae at 20 ug/ml relative to control.
Experiment [2] concerns Lymantria dispar. As to the kind of experiment: Antifeedant activity in gypsy moth ten third-instar larvae at 15 ug/ml relative to control.
Experiment [3] relates to Lymantria dispar. The experiment can be described thus: Antifeedant activity in gypsy moth ten third-instar larvae at 32.5 ug/ml relative to control.
In experiment [4] the test system is Lymantria dispar. The experiment can be described thus: Antifeedant activity in gypsy moth ten third-instar larvae at 27 ug/ml relative to control.
The subject of experiment [5] is Lymantria dispar. The experiment can be described thus: Antifeedant activity in gypsy moth ten third-instar larvae at 17.5 ug/ml relative to control.
Experiment [6] concerns Lymantria dispar. As to the kind of experiment: Antifeedant activity in gypsy moth ten third-instar larvae at 60 ug/ml relative to control.
The test system of experiment [7] is Lymantria dispar. The experiment can be described thus: Antifeedant activity in gypsy moth ten third-instar larvae at 45 ug/ml relative to control.
In experiment [8] the test system is Lymantria dispar. The experiment can be described thus: Antifeedant activity in gypsy moth ten third-instar larvae at 2.5 ug/ml relative to control.
Experiment [9] has as its system Lymantria dispar. As to the kind of experiment: Antifeedant activity in gypsy moth ten third-instar larvae at 30 ug/ml relative to control.
The test system of experiment [10] is Lymantria dispar. As to the kind of experiment: Antifeedant activity in gypsy moth ten third-instar larvae at 7.5 ug/ml relative to control.

As for `C=C1[C@@H]2CC[C@@H]3C[C@@]2(C[C@@H](O)[C@@]2(O)[C@H]1C[C@H](O)C2(C)C)C[C@@]3(C)O`, the Activity in [1] is 121%.

As to `C=C1[C@@H]2CC[C@@H]3[C@@H](O)[C@@]2(C[C@@H](O)[C@@]2(O)[C@H]1C[C@H](O)C2(C)C)C[C@@]3(C)O`, the Activity in experiment [2] is listed as 65%.

As to `CC1(C)[C@@H](O)C[C@H]2[C@](C)(O)[C@@H]3CC[C@@H]4[C@@H](O)[C@@]3(C[C@@H](O)[C@@]21O)C[C@@]4(C)O` [GRAYANOTOXIN III], the Activity in [3] worked out at 49%.

On to `CC(=O)O[C@@H]1[C@@H](O)[C@]23C[C@@](C)(O)[C@H](CC[C@H]2[C@@](C)(O)[C@@H]2C[C@H](O)C(C)(C)[C@@]12O)[C@H]3O` [KALMITOXIN III], for which the Activity in experiment [4] stood at 99%.

Regarding `C=C1[C@@H]2CC[C@@H]3[C@@H](O)[C@]2(C[C@@]3(C)O)[C@H](O)[C@@H](O)[C@@]2(O)[C@H]1C[C@H](O)C2(C)C` [KALMITOXIN II], in [5], the Activity stood at 86%.

Take `CC1(C)[C@@H](O)C[C@H]2[C@](C)(O)[C@@H]3CC[C@@H]4[C@@H](O)[C@]3(C[C@@]4(C)O)[C@H](O)[C@@H](O)[C@@]21O` [KALMITOXIN I]: the Activity in experiment [6] is reported as 23%.

`CC(=O)O[C@@H]1[C@@H](O)[C@@]2(O)[C@@H]([C@@H](O)[C@H](O)C2(C)C)[C@](C)(O)[C@@H]2CC[C@@H]3[C@@H](OC(C)=O)[C@]12C[C@@]3(C)O` [KALMITOXIN VI] displayed an Activity in [7] of 106%.

The molecule `CC(=O)O[C@@H]1[C@@H](OC(C)=O)[C@@]2(O)[C@@H]([C@@H]3O[C@@H]3C2(C)C)[C@](C)(O)[C@@H]2CC[C@@H]3[C@@H](O)[C@]12C[C@@]3(C)O` [KALMITOXIN V] gave an Activity in [8] of 92%.

Take `CC(=O)O[C@@H]1[C@@H](O)[C@]23C[C@@](C)(O)[C@H](CC[C@H]2[C@@](C)(O)[C@@H]2[C@@H]4O[C@@H]4C(C)(C)[C@@]12O)[C@H]3O` [KALMOTOXIN IV]: the Activity in experiment [9] turned out to be 47%.

In turn, `CC(=O)O[C@@H]1[C@@H](O)[C@@]23C[C@@H](CC[C@H]2[C@@](C)(O)[C@@H]2[C@@H]4O[C@@H]4C(C)(C)[C@@]12O)[C@](C)(O)C3` [LYONIOL A] came in with an Activity in experiment [10] of 95%.

These data come from ChEMBL document CHEMBL1151352, “Antifeedant Diterpenes For the Gypsy Moth Larvae From Kalmia latifolia: Isolation and Characterization of Ten Grayanoids” (1980).
